Reference: US9718806B2, “Quinazoline inhibitors of activating mutant forms of epidermal growth factor receptor” (AstraZeneca AB, priority 2013, dated 2017)
Structures can show the parent of a compound that is named as a salt.

Columns and labels:
[1] = Assay 2: brain blood barrier penetration assay (short oral absorption model plus in vitro blood and brain binding); type: in vivo; conditions: rat, male Han Wistar rats, oral 2 mg/kg, Kp,uu=AUC (brain)/AUC (blood)×(fu,brain/fu.blood)
Experimental: Assay 2: Brain Blood Barrier Penetration Assay
It is believed that Kp,uu, the relationship between concentrations of unbound drug in brain and in blood, is the key to prediction of CNS action and should be the main parameter measured and optimized for in drug discovery (Di L et al., Journal of Medicinal Chemistry [2013], 56: 2-12).
In vitro blood and brain binding assay was carried out on a HT-Dialysis plate (Gales Ferry, Conn.) with semi-permeable membrane. Diluted blood (1:1 with DPBS pH7.4) and brain homogenate (1:3 with DPBS pH7.4) were spiked with 5 μM test compound (in triplicate) and dialyzed against equal volume of 150 μL 100 mM PBS buffer (pH7.4) at 37° C. for 4 hours in a slowly rotated plate. At the end of incubation, a 50 μL aliquot from the receiver side and a 5 μL from the donor chamber were taken. The 5 μL sample was further diluted with 45 μL of blank blood or brain homogenate. Paired samples were matrix-matched with either buffer or blank blood/brain homogenate and mixed for 2 min, and then precipitated with 150 μL cold acetonitrile with 100 ng/mL tolbutamide as internal standard. After centrifuging at 4000 rpm for 20 min, supernatant was diluted with 0.1% formic acid aqueous solution and analyzed for LC/MS/MS (API 4000, Applied Biosystems, Foster City). […]. D is dilution factor.
A Short oral absorption (SOA) model is an in-vivo screening model to identify brain penetration of a compound. […]
Standards were prepared by spiking blank blood, brain homogenate and artificial CSF covering 0.2 to 500 ng/mL. […] After 2 min vortex and 5 min centrifugation at 14,000 rpm, supernatant was analyzed by LC/MS/MS (API 4000, Applied Biosystems, Foster City). […] For brain and CSF samples, one standard curve was analyzed along with test samples.
Total brain levels, expressed as brain/blood ratio (Kp) were measured by AUCbrain/AUCblood in rodents after oral administration. Free fraction of test compound in biological matrix was determined by in vitro blood and brain binding assay. Kp,uu was calculated by the following equation: Kp,uu=AUC (brain)/AUC (blood)×(fu,brain/fu.blood).

endogenous p-EGFR = experiment: Assay 1: cellular phosphorylation assay, overall statement; type: cell-based, human; conditions: Assay 1, statement on the table
Text: Assay 1: Cellular Phosphorylation Assay
The human lung cell line NCI-H3255 (L858R) was obtained from the American Type Culture Collection. The NCI-H3255 cells were maintained in BEBM media (Lonza; CC-3171), containing 10% fetal bovine serum (FBS) (Gibco; 10099-141), supplemented with BEGM kit (Lonza; CC-4175). The human lung cell line PC-9 (Exon 19 deletion EGFR) was obtained from the American Type Culture Collection. PC-9 cells were maintained in RPMI 1640 (Gibco; 22400-089), containing 10% fetal bovine serum. The human lung cell line NCI-H838 (EGFR wild type) was obtained from the American Type Culture Collection. NCI-H838 cells were maintained in RPMI 1640 (Gibco; 22400-089), containing 10% fetal bovine serum.
All cells were grown in a humidified incubator at 37° C. with 5% CO2. Assays to measure cellular phosphorylation of endogenous p-EGFR in cell lysates were carried out according to the protocol described in the PathScan® Phospho-EGF Receptor (Tyr1068) Sandwich ELISA Kit (Cell Signalling kit catalogue number #7240).
100 μL of cells were seeded (32000 cells/well) in RPMI 1640+1% fetal bovine serum in Corning Costar, 96 well cell culture plates and incubated at 37° C. with 5% CO2 overnight. Cells were acoustically dosed using a […], with compounds serially diluted in 100% DMSO. Cell plates were incubated for a further 4 h after the compounds were added, (for NCI-H838: rhEGF (R&D catalogue number#236-EG) was added to cell plate with final concentration 100 ng/ml rhEGF to stimulate 5 minutes), then following aspiration of medium, 110 μL IP lysis buffer (IP lysis buffer: add 1:100 phosphatase inhibitor cocktail 2&3 (Sigma catalogue number P5726&P0044), 1:100 protease inhibitor cocktail (Sigma catalogue number P8340) to Pierce IP lysis buffer (Thermo catalogue number #87788)) was added to each well. The plates were put at 4° C. with rotation 300 rpm for 0.5-1 hour. […] 100 μl stop solution (Cell Signalling kit catalogue number#7240) was added to the plates and absorbance read at 450 nm within 30 minutes on SpectraMax M5e plate reader. […]

Kp uu ([1]; brain / blood (unbound)) | Compound | Kp uu ([1]; in vivo) | potency compared with gefitinib and erlotinib (endogenous p-EGFR)
– | COc1cc2ncnc(Nc3cccc(Cl)c3F)c2cc1OC(=O)N1CCN(C)C[C@H]1C [Example 1, 4-[(3-Chloro-2-fluorophenyl)amino]-7-methoxyquinazolin-6-yl (2R)-2,4-dimethylpiperazine-1-carboxylate] | 1.3 | comparable potency to gefitinib and erlotinib
– | COc1cc2ncnc(Nc3cccc(Cl)c3F)c2cc1OC(=O)N1CCN(C)C[C@H]1C [Example 2, 4-[(3-Chloro-2-fluorophenyl)amino]-7-methoxyquinazolin-6-yl (2R)-2,4-dimethylpiperazine-1-carboxylate hydrochloride] | – | comparable potency to gefitinib and erlotinib
1.6 | COc1cc2ncnc(Nc3cccc(Cl)c3F)c2cc1OC(=O)N1CCN(C)C[C@@H]1C [Example 3, 4-[(3-Chloro-2-fluorophenyl)amino]-7-methoxyquinazolin-6-yl (2S)-2,4-dimethylpiperazine-1-carboxylate] | – | comparable potency to gefitinib and erlotinib
0.12 | CNC(=O)CN1CCC(Oc2cc3c(Nc4cccc(Cl)c4F)ncnc3cc2OC)CC1 [sapitinib, reference compound] | – | –
